# Reference: patent publication US8124121B2, “Flavors, flavor modifiers, tastants, taste enhancers, umami or sweet tastants, and/or enhancers and use thereof” (Senomyx, Inc., priority 2003, dated 2012)
# Legend:
# [1] = test system: un-induced I-17 cells; assay: FLIPR assay on un-induced I-17 cells (receptor dependency control); format: cell-based; settings: I-17 cells not induced with mifepristone; compounds presented at 10 μM
# Procedure: In order to determine the dependency of hT1R1/hT1R3 for the cell response to different stimuli, selected compounds were subjected to a similar analysis on I-17 cells that had not been induced for receptor expression with mifepristone (designated as un-induced I-17 cells). […] Compounds were presented to un-induced umami cells at […]—or three times the maximum stimulation used in the dose-response analysis.
# [2] = test system: savory taste, human panelists; assay: Umami/savory flavor experiments using human panelists (trained panel, difference from reference); format: in vivo; settings: 12 mM MSG + cpd vs reference 12 mM MSG + 100 μM IMP
# Procedure: General Panelist Selection: Basic screening of sensory taste testers: Potential panelists were tested for their abilities to rank and rate intensities of solutions representing the five basic tastes. Panelists ranked and rated intensity of five different concentrations of each of the five following compounds: sucrose (sweet), sodium chloride (salty), citric acid (sour), caffeine (bitter), and monosodium glutamate (savory). In order to be selected for participation in testing, panelists needed to correctly rank and rate samples for intensity, with a reasonable number of errors
# Preliminary Taste Tests: The panelists selected in the above procedure were deemed qualified for performing Preliminary Taste Testing procedures. The preliminary taste tests are used to evaluate new compounds for intensity of basic tastes and off-tastes. A small group of panelists (n=5) taste approximately 5 concentrations of the compound (range typically between 1-100 μM, in half-log cycles, e.g., 1, 3, 10, 30, and 100 μM) in water and in a solution of 12 mM MSG to evaluate enhancement. Panelists rate the five basic tastes (sweet, salty, sour, bitter, and savory) as well as off-tastes (such as chemical, metallic, sulfur) on a labeled magnitude scale. Samples are served in 10 mL portions at room temperature. The purpose of the test is to determine the highest concentration at which there is no objectionable off-taste, and determine if obvious savory taste or enhancement of savory taste exists at any of the concentrations tested.
# Trained Panelist Selection: A trained expert panel was used to further evaluate compounds that had been tested with the preliminary taste test.
# Panelists for the trained panel were selected from the larger group of qualifying taste panelists. Panelists were further trained on savory taste by ranking and rating experiments using MSG and IMP combinations. Panelists completed a series of ranking, rating, and difference from reference tests with savory solutions. In ranking and rating experiments, panelists evaluated easy MSG concentrations (0, 6, 18, 36 mM) and more difficult MSG concentrations (3, 6, 12, 18 mM MSG) in water.
# Compound testing with Trained Panel: Compounds tested by the trained panel were evaluated in difference from reference experiments. […] Test samples were solutions with varying amounts of MSG, IMP, and the compound.
# Compounds were tested against the reference in samples with and without 12 mM MSG. All samples were presented in 10 ml volumes at room temperature. Two sessions were completed for each compound tested to evaluate panel reproducibility.
# [3] = test system: sweet taste, human panelists; assay: Sweet flavor and sweet flavor enhancement measurement using human panelists; format: in vivo
# Procedure: Overview: Various concentrations of the experimental compound (normally aqueous solutions containing 1, 3, 10, and 30 uM concentrations of the experimental compound; and optionally 50 uM and/or 100 uM concentrations) are individually tasted by trained human subjects and rated for intensity of several taste attributes. The experimental compound may also be tasted when dissolved in a “key tastant” solution.
# Procedure: An appropriate quantity of the experimental compound is dissolved in water typically also containing 0.1% ethanol, which is utilized to aid initial dispersion of the compound in the aqeuous stock solution. When appropriate, the experimental compound may also be dissolved in aqueous solutions of a “key tastant” (for example, 4% sucrose, 6% sucrose, 6% fructose/glucose, or 7% fructose/glucose, at pH 7.1 or 2.8).
# Five human Subjects are used for preliminary taste tests. […] Subjects refrain from eating or drinking (except water) for at least 1 hour prior to the test. Subjects eat a cracker and rinse with water four times to clean the mouth before taste tests.
# The aqueous solutions are dispensed in 10 ml volumes into 1 oz. sample cups and served to the Subjects at room temperature. Samples of the experimental compound dissolved in an appropriate key tastant (e.g., 4% sucrose, 6% fructose, or 6% fructose/glucose, typically at pH 7.1) at various concentrations of the experimental compound may also be served to the Subjects. Subjects also receive a reference sample of the key tastant (e.g., sucrose, fructose, or fructose/glucose, typically at pH 7.1) at different concentrations for comparison.
# Subjects taste the solutions, starting with the lowest concentration, and rate intensity of the following attributes on the Labeled Magnitude Scale (LMS) for sweetness, saltiness, sourness, bitterness, savory (umami), and other (off-taste). Subjects rinse three times with water between tastings. If a particular concentration elicits an undesirable characteristic or off-taste, subsequent tastings of higher concentrations are eliminated. After a break, Subjects taste a solution of the key tastant (e.g., 4% sucrose, 6% fructose, or 6% fructose/glucose, typically at pH 7.1) without the experimental compound. Then solutions of the key tastant plus experimental compound are tasted in increasing order of concentration. The key tastant solution can be retasted for comparison with key tastant+experimental compound solutions if necessary. Discussion among panelists is permitted.
# Subjects rate the difference in intensity of the test sample compared to the reference sample for the key attribute on a scale of −5 (much less sweet than the reference) to +5 (much more sweet than the reference). A score of 0 indicates the test sample is equally as sweet as the reference. […]
# [4] = test system: HEK293-Gα15 cells; assay: FLIPR assay on HEK293-Gα15 cells not expressing the human sweet receptor (receptor dependency control); format: cell-based
# Source text: In order to determine the dependency of hT1R2/hT1R3 for the cell response to different stimuli, selected compounds were subjected to a similar analysis on HEK293-Gα15 cells (not expressing the human sweet receptor).
smiles,measurement,setting,value
N[C@@H](CCC(=O)O)C(=O)[O-].[Na+] [monosodium glutamate],functional response in the FLIPR assay using un-induced umami cells,[1],do not show any functional response
"COc1cc(C)ccc1CNC(=O)C(=O)NCCc1ccc(C)cn1 [Example 157, N^1-(2-methoxy-4-methylbenzyl)-N^2-(2-(5-methylpyridin-2-yl)ethyl)oxalamide]",Taste Data: concentration of cpd with 12 mM MSG that is as strong as 12 mM MSG + 100 μM IMP,[2],12 mM MSG + 0.3 μM cpd as strong as
same,melting point,,116 to 117 °C
"Cc1c(F)c(F)c(C(=O)NC2CCCCC2C)c(F)c1F (stereo not drawn) [Example 162, 2,3,5,6-tetrafluoro-4-methyl-N-(2-methylcyclohexyl)benzamide]",Perceived Equivalent Sweet Solution,"[3]; 10 uM compound + 6% fructose/glucose, pH 7.1",≥ 8% fructose/glucose
same,Perceived Equivalent Sweet Solution,"[3]; 10 uM compound + 7% fructose/glucose, pH 2.8",≥ 9% fructose/glucose
O=C(CO)[C@@H](O)[C@H](O)[C@H](O)CO [D-Fructose],functional response in the FLIPR assay using HEK293-Gα15 cells,[4],do not show any functional response
